Test results reported in patent US8497075B2, “Methods of identifying a modulator that inhibits the binding between Epstein-Barr virus induced receptor 2 and cholesterol derived ligands” (Novartis AG, priority 2008, dated 2013).
Like-named read-outs stand apart in the source and are kept apart here.

Tests used:
Design in all cases: expressed in transfected cells; host or cells: CHO-K1 expressing apoaequorin (CHO-Aeq) with Gqi5; line E2
[1] = target: T1, hEBI2 (Homo sapiens, UniProt P32249); experiment: calcium fluorescence (FLIPR); assay type: cell-based
T1 sequence (P32249 whole entry): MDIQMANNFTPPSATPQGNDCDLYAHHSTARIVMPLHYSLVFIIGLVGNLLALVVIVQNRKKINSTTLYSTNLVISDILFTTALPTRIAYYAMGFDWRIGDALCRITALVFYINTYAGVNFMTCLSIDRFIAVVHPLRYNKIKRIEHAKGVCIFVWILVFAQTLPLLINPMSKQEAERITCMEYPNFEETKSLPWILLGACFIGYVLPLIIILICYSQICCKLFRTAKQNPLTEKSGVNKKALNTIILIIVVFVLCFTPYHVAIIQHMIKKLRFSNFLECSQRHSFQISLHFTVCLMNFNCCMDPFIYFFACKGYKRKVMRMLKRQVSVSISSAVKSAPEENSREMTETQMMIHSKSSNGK
Experimental: If not stated otherwise compounds were dissolved at 10 mM in DMSO or ethanol (cholesterol, 25MDC). Serial dilutions were carried out in 90% DMSO (FLIPR, GTPgS) or assay buffer (binding assay). For cell based assays final DMSO concentrations is kept below 1%.
If not stated otherwise, the same Chinese hamster ovary (CHO) cell line called E2 which was used for the ligand identification was used in these experiments. This cell line is expressing (1) the recombinant human EBI2 receptor, (2) the promiscuous Gqi5 protein as well as (3) apo-aequorin.
Cells were seeded in black/clear bottom, poly-D-Lysine coated 384-well plates at a cell density of 10,000 cells/25 μL/well, using culture medium. Cells were cultured for 24 hours at 37° C./5% CO2. Culture medium was removed and for cell loading, 20 μl per well of loading buffer (Calcium-4 no wash dye) were distributed into the wells and the plates were incubated for 60 min at 37° C. in 5% CO2. With the FLIPR pipettor, 10 μl of the different compounds were added to the cells and the subsequent fluorescent changes monitored for 3 minutes. Using the FLIPR software tool, 2 values of fluorescence calcium responses were exported: Fmax, the fluorescence at the peak and Fbasal corresponding to the value prior to compound injection. From these two values, the calcium response is normalized with respect to the calcium baseline values using dF/F=(Fmax−Fbasal)/Fbasal. The maximum dF/F is called Emax.

[2] = target: T1, hEBI2; experiment: GTPγS assay on EBI2 membranes; assay type: biochemical
Experimental: (§1) The cell suspension was then homogenized using a Dounce homogenizer (10 strokes) with a driller. After centrifugation at 110000×g for 45 minutes and removal of the supernatant, pellets were resuspended in sucrose buffer (50 mM Tris pH7.2, 250 mM sucrose, 10% glycerol) by vortexing. The suspension was again homogenize using a Dounce homogenizer (10 strokes) and spun at 100000×g for 45 minutes. The supernatant was discarded, the pellet resuspended in sucrose buffer, protein concentration determined, aliquoted and frozen at −80° C. These membrane preparations were used in binding as well as GTPgS assays.
Ten micrograms of EBI2 membranes are dissolved in 40 μl of buffer A (20 mM Hepes pH 7.4, 100 mM NaCl, 1.5 mM MgCl2, Saponin 10 μg/ml) supplemented with 10 μM GDP. After addition of […] scintilation proximity assay (SPA) beads (100 μg/well, Amersham, RPNQ0001) components are gently mixed and incubated at RT for 15 minutes. Twenty microliters of compound diluted in buffer A and 20 μl of GTPγ^35S (Perkin Elmer NEG030X) is added before incubation for one hour at RT. Plates are transferred and counted in a TopCount (Perkin Elmer NXT HTS™) and counts are analysed plotted and to determine half maximal concentrations of activation using standard software (Prism™, GraphPad Software Inc.).

[3] = target: T1, hEBI2; experiment: [3H] 7a,25DHC radio-ligand binding assay (SPA), IC50 determination
Experimental: as §1
Lyophilized wheat germ agglutinin scintilation proximity assay (SPA) beads (RPNQ0001) were purchased from GE Healthcare (Buckinghamshire, UK). One vial (500 mg) is reconstituted by adding 5 mL of distilled water to give a final concentration of 100 mg/mL. Reconstituted SPA beads must be stored at 4° C., but must not be frozen. [3H]-7a,25-OHC, was synthesized by reduction of the 7-keto, 25DHC in the presence of 3H-L-selectride.
The SPA assay was performed in a final volume of 50 μl per well in a 384-well polystyrene Opti plate. The components were added into the wells as follows: • 10 μl tested compounds in 50 mM Tris; 100 mM NaCl; 5 mM MgCl2 and 0.1% Cyclodextrine.
Total binding was determined by the addition of 10 μl of 50 mM Tris; 100 mM NaCl; 5 mM MgCl2 and 0.1% Cyclodextrine and non-specific binding was determined by the addition of 10 μl NVP-BYX998-NX-4 (final concentration of 10 μM). • 20 μL of 10 nM final [3H]-BYX998 in assay buffer (50 mM Tris-HCl, 100 mM NaCl, 5 mM MgCl2 and 0.1% Cyclodextrine). • 20 μL of a mixed bead and membrane suspension in assay buffer, in order to get a final concentration of 20 μg membranes/well and 200 μg beads/well.
The plates were sealed and shaken at room temperature for 10 minutes then allowed to stand at room temperature for at least 12 hours. The plates were counted using a Perkin Elmer TopCount reader, each well being counted for 1 minute.
Each IC50 determination was performed with 11 concentrations.
A standard data reduction algorithm was used to calculate the percentage of specific binding in the presence of test compound as follows: ((B−NSB)/(Total−NSB))·100, where B=Binding in the presence of test compound (in cpm) NSB=Non-specific binding in the presence of excess inhibitor (in cpm) Total=Binding in the absence of test compound (in cpm) Curve fitting of the normalized concentration response curves using a four parameter logistic fit is then performed using XLfit (v.2 or v.4, IDBS, Guildford, UK). The equation used is XLfit equation no. […] By default, min is fixed at 0, whereas max is not fixed.

[4] = 10 nM radioligand, n = 3, read-out: [^3H] 7a,25DHC Binding IC50

Compound	EC50 [1]	EC50 [2]	IC50 [3, 4]	IC50 [3]	EC50 ([1]; n = 3-4, read-out: FLIPR EC50)	EC50 ([2]; n = 3-4, read-out: GTPgS EC50)
C[C@H](CCCC(C)(C)O)[C@H]1CC[C@H]2[C@@H]3[C@H](O)C=C4C[C@@H](O)CC[C@]4(C)[C@H]3CC[C@]12C [7a,25DHC, cholest-5-ene-3b,7a,25-triol]	1.9 nM	7.5 nM	70.4 nM	–	–	–
CC(CO)CCC[C@@H](C)[C@H]1CC[C@H]2[C@@H]3[C@H](O)C=C4C[C@@H](O)CC[C@]4(C)[C@H]3CC[C@]12C (stereo partly drawn) [7a,27DHC, cholest-5-ene-3b,7a,27-triol]	4.8 nM	5.1 nM	–	362 nM	–	–
C[C@H](CCCC(C)(C)O)[C@H]1CC[C@H]2[C@@H]3[C@@H](O)C=C4C[C@@H](O)CC[C@]4(C)[C@H]3CC[C@]12C [7b,25DHC, cholest-5-ene-3b,7b,25-triol]	–	–	2630 nM	–	121 nM	221 nM
